Experimental data from ChEMBL document CHEMBL1125093, “Structure-activity relationships of 8-cycloalkyl-1,3-dipropylxanthines as antagonists of adenosine receptors” (J Med Chem, 1990).

How the values were obtained:
[1] = molecular target: Adenosine receptor A1 (Rattus norvegicus) (UniProt P25099); experiment: Antagonist activity against adenosine A1 receptor in rat adipocytes
[2] = molecular target: Adenosine receptor A2 (Homo sapiens); experiment: Antagonistic activity against adenosine A2 receptor in human platelets

Structure (SMILES) | Ki [1] [nM] | Ki [2] [nM]
CCCn1c(=O)c2nc([C@H]3CC[C@H](CNC(C)=O)CC3)[nH]c2n(CCC)c1=O | 8 | –
CCCn1c(=O)c2nc(CC3CCCC3)[nH]c2n(CCC)c1=O | 69 | > 10000
CCCNC(=O)C1CCC(c2nc3c([nH]2)c(=O)n(CCC)c(=O)n3CCC)CC1 (centres undefined) | 85 | > 3000
CCCn1c(=O)c2nc(C3CCC(C(=O)OC)CC3)[nH]c2n(CCC)c1=O (centres undefined) | 130 | 560
CCCn1c(=O)c2nc(NC3CCC3)[nH]c2n(CCC)c1=O | 2.6 | 120
CCCn1c(=O)c2nc(C3CCCC(NC(C)=O)C3)[nH]c2n(CCC)c1=O (centres undefined) | 41 | 1000
CCCn1c(=O)c2nc(C3=C(C(=O)O)CCC3)[nH]c2n(CCC)c1=O | > 10000 | > 10000
CCCn1c(=O)c2nc(N3CCCC3)[nH]c2n(CCC)c1=O | 76 | –
CCCn1c(=O)c2[nH]c(C34CC5CC(CC(C5)C3)C4)nc2n(CCC)c1=O | 82 | –
CCCn1c(=O)c2nc(NC3CCCC3)[nH]c2n(CCC)c1=O | 8 | 130
CCCn1c(=O)c2nc(N3CCCCC3)[nH]c2n(CCC)c1=O | 22 | 490
CCCn1c(=O)c2nc(C3CCC(CN)CC3)[nH]c2n(CCC)c1=O (centres undefined) | 20 | –
CCCn1c(=O)c2nc(C3CCCC(N)C3)[nH]c2n(CCC)c1=O (centres undefined) | 50 | > 10000
CCCn1c(=O)c2nc(C3CC3C)[nH]c2n(CCC)c1=O (centres undefined) | 11 | > 10000
CCCn1c(=O)c2nc(C3CCC3C(=O)O)[nH]c2n(CCC)c1=O (centres undefined) | 660 | > 10000
CCCn1c(=O)c2nc(NC3CCCCC3)[nH]c2n(CCC)c1=O | 14 | 680
CCCn1c(=O)c2nc(C3CCC(C(=O)O)CC3)[nH]c2n(CCC)c1=O (stereo in doubt; 1) | 430 | > 10000
CCCn1c(=O)c2nc(C3CCC(C(=O)O)CC3)[nH]c2n(CCC)c1=O (stereo in doubt; 2) | 59 | 1500
CCCn1c(=O)c2nc(C3CCCCC3C(=O)O)[nH]c2n(CCC)c1=O (stereo in doubt; 3) | > 10000 | > 10000
CCCn1c(=O)c2nc(C3CCCCC3C(=O)O)[nH]c2n(CCC)c1=O (stereo in doubt; 4) | > 3000 | > 3000
CCCn1c(=O)c2[nH]c(C3CCC(N)CC3)nc2n(CCC)c1=O (stereo in doubt; 6) | 90 | –
CCCn1c(=O)c2[nH]c(C3CCC(N)CC3)nc2n(CCC)c1=O (stereo in doubt; 7) | 160 | –
CCCn1c(=O)c2nc(C3CCC(NC(C)=O)CC3)[nH]c2n(CCC)c1=O (stereo in doubt; 9) | 12 | > 10000
CCCn1c(=O)c2nc(C3CCC(NC(C)=O)CC3)[nH]c2n(CCC)c1=O (stereo in doubt; 10) | 70 | 1000
CCCn1c(=O)c2nc(C3CCC(C(=O)N(C)CCN(C)C)CC3)[nH]c2n(CCC)c1=O (stereo in doubt; 14) | 17 | 260
CCCn1c(=O)c2nc(C3CCC(C(=O)N(C)CCN(C)C)CC3)[nH]c2n(CCC)c1=O (stereo in doubt; 15) | 85 | 450
CCCn1c(=O)c2nc(C3CCCC3C(=O)O)[nH]c2n(CCC)c1=O (stereo in doubt; 17) | 140 | > 10000
CCCn1c(=O)c2nc(C3CCCC3C(=O)N(C)CCN(C)C)[nH]c2n(CCC)c1=O (stereo in doubt; 19) | > 3000 | > 3000
CCCn1c(=O)c2nc(C3CCCC3C(=O)N(C)CCN(C)C)[nH]c2n(CCC)c1=O (stereo in doubt; 20) | 53 | > 10000
CCCn1c(=O)c2nc(C3CCCC3C(=O)O)[nH]c2n(CCC)c1=O (trans isomer) | 100 | > 10000
